In patent US20100286247A1, “Methods of Protection from Oxidative Stress” (Trustees of Boston University, priority 2005, published 2010):
Entries after “also recorded” stand apart in the source; their conditions may differ. {P} = phosphate

Legend:
[1] = tested on: human dermal fibroblasts; test: Senescence-associated β-galactosidase (SA-β-gal) assay; format: cell-based; settings: for SA-β-gal positive cells, result in words: up to 72 hours of treatment
Source text: Subconfluent senescent fibroblasts were found by Dimri et al. to stain blue in an assay that measures β-galactosidase activity at pH 6.0.^240 As per their protocol, cells were fixed with a 2% formaldehyde and 0.2% glutaraldehyde solution, washed, and stained overnight in X-gal solution. The next day, 3-4 photographs were taken of representative fields in each plate under a 10× microscope objective using coded labels. The number of blue (senescent) cells in each photograph could then be determined in a blinded fashion. The SA-β-gal assay was performed in parallel with the DCF time-course experiments, using the same mixture of donor cells and seeding densities.

[2] = tested on: intracellular ROS in normal newborn human dermal fibroblasts; test: Dichlorofluorescein diacetate (DCF) assay of intracellular ROS, FACScan; format: cell-based; settings: for DCF fluorescence (intracellular ROS) compared to diluent: 100 μM pTT / pCC, 40 μM TO / TOC1 / TOC2
Protocol: Normal newborn human dermal fibroblasts were cultured from foreskin specimens into DMEM supplemented with 10% CS as described above. Due to the large number of cells needed for time course experiments, and to minimize donor variability, in dichlorofluorescein diacetate FACS experiments cells from three different donors were combined.
Purified lyophilized oligonucleotides were obtained and prepared for cell treatment as described above. All treatments involved a single stimulation with T-oligo, after which cells were harvested at various times without medium changes or addition of more T-oligo. Treatment doses were 100 μM pTT and 40 μM TO except in dose-response experiments; these concentrations were determined in previous experiments to be optimal for measuring DNA damage responses using these T-oligos.^142,150,228
Complementary and scrambled oligonucleotides were chosen for each T-oligo. pAA and pCC were used as controls for pTT, and the complementary 11-base pCTAACCCTAAC (TOC1, SEQ ID NO: 22) and a scrambled sequence pGATCGATCGAT (TOC2, SEQ ID NO: 23) were used as controls for the T-oligo TO.
H2DCFDA stock solution (1 mg/ml) was thawed and diluted in Hanks' Balanced Salt Solution, 1× liquid without phenol red (GIBCO Invitrogen, Carlsbad, Calif.), to a working concentration of 100 μM immediately before use. H2DCFDA is converted by intracellular esterases to dichlorofiuorescein (DCF). When oxidized by intracellular ROS, it will fluoresce at 530 nm when excited by 480 nm light. […] All work involving DCF was conducted in minimal room light. Peaks on FACScan plots that shift to the right indicate greater fluorescence and increased ROS levels. For NADPH oxidase inhibitor studies using DPI,^237,239 the DPI stock solution was added directly to DCF treatment solution to achieve a final DPI treatment concentration of 50 μM.
Hydrogen peroxide positive controls were used to rule out saturation of the DCF probe in the T-oligo dose response experiments. Fibroblasts were exposed to 1 mM, 5 mM and 10 mM H2O2 solutions in PBS for 15 minutes following DCF incubation for 30 minutes, harvested and analyzed as described above.
The horseradish peroxidase assay data was analyzed by one-way ANOVA. DCF assay FACScan results were analyzed using Cellquest software (Becton-Dickinson, Calif.). All peak positions on x-axis of the fluorescence histogram plot were determined visually (using the software) and recorded as a number. Peak position values were then compared using one-way ANOVA.

[3] = tested on: human newborn fibroblasts; test: Propidium iodide (PI) staining of nonviable cells; format: cell-based; settings: doses 25-250% of standard dose (40 μM TO, 100 μM pTT); positive control 1 mM H2O2
Protocol: Propidium iodide (PI, Sigma) was used to stain nonviable cells for some experiments. PI stock solution (1 mg,/ml) was added to samples immediately after harvesting to achieve a final concentration of 2 μg/ml.
To better characterize the dose effects of different pTT and 11-base T-oligo doses, a dose response study was conducted. For each T-oligo the doses were 25-250% of the standard dose used (40 μM for TO and 100 μM for pTT). […] Panel C is a compilation of the maximum DCF peak shifts measured with each treatment: diluent, 250 μM pTT, 100 μM TO and 1 mM as the positive control. […] There is a significant difference in DCF fluorescence stimulated by the two treatments when the same doses were used (25, 40 and 100 μM) (2-way ANOVA, p=0.0038).

[4] = tested on: neonatal foreskin fibroblasts; test: Hydrogen peroxide oxidative challenge, cell yields
Protocol: Early passage neonatal foreskin fibroblasts were passed to 100 mm dishes and pretreated 24 hours after passage with 100 μM pTT or diluent control. […] For each experiment fresh H2O2 solutions were made in DMEM. The H2O2 and control DMEM solutions were made and sterilized through 0.45 μm syringe filters immediately before treatment. After the one-hour treatment with H2O2 or diluent control, fresh medium was provided. Cells were harvested at later timepoints by a brief washing in 1× EDTA, followed by trypsinization at 37° C. Cell yields were determined using the Coulter Z cell counter.
The hydrogen peroxide oxidative challenge assay data were generated with the combined results of four separate experiments. The averages for each treatment condition and timepoint studied (8, 24, 48, and 72 hours) were used to calculate the percent of adherent H2O2 treated cells relative to diluent-treated cells. Changes in cell yield were determined as a function of time using General Linear Model with repeated measure analysis (SPSS Version 10).
After 72 hours of pretreatment with either 100 μM pTT or diluent control, the same number of cells were replated with fresh 10% CS DMEM lacking pTT. The following day they were exposed to a dose of 25 μM H2O2 or DMEM control for 1 hour, and cell yields were determined at 8, 24, 48 and 72 hours following the H2O2 treatment.
Newborn fibroblasts cells were plated in DMEM supplemented with 10% CS. Forty-eight hours after plating, cells were provided fresh medium. Twenty-four hours later, cells were provided fresh medium containing 40 μM of p[sequence] (abbreviated as TO, SEQ ID NO: 1) or diluent as a control. Seventy-two hours later, cells were harvested and replated in fresh medium lacking oligonucleotides. Twenty-four hours later, cells were provided fresh H2O2 (25 μM) or diluent for 1 hour and then provided fresh DMEM with 10% CS. Cell yield was then measured in TO-pre-treated cultures as well as control cultures.

Substance	cells staining positive in the SA-β-gal assay ([1]; 40 μM TO or 100 μM pTT, 24-72 hours of treatment)	SA-β-gal positive cells, result in words [1]	DCF fluorescence (intracellular ROS) compared to diluent [2]	PI fluorescence (toxicity / nonviable cells) [3]	cell yields over time following exposure to H2O2 vs diluent pretreated ([4]; 100 μM pTT 72 hours pretreatment, 25 μM H2O2 1 hour, p=0.0008)	cell yields at 8 hours after H2O2 treatment vs diluent-pretreated ([4]; 100 μM pTT pretreatment, 25 μM H2O2)	higher relative cell yields (percentage of respective H2O2 controls) vs diluent-pretreated ([4]; 100 μM pTT pretreatment, 24 and 48 hours after 25 μM H2O2)	maximum amount of DCF fluorescence, TO vs pTT ([2]; 40 μM TO compared to 100 μM pTT)	time measurable ROS stimulation starts ([2]; FIG. 14 donor cells, 100 μM pTT, 40 μM TO)	time of measurable ROS stimulation ([2]; FIG. 16 representative time course, donor variability)	ROS production (DCF fluorescence) relative to pTT at the same dose ([2]; within 72 hours, 25, 40 and 100 μM doses)	resistance to H2O2 measured by total cell yield ([4]; 40 μM TO 72 hours pretreatment, 25 μM H2O2 1 hour, up to 48 hours)	cells surviving oxidative challenge by H2O2 (cell yield as percent of own diluent control) ([4]; 40 μM TO pretreatment, 25 μM H2O2, non-treated control 52%)
5′-phosphorylated thymidine dinucleotides [pTT]	Less than 10%	did not result in a significant number of SA-β-gal cells; also recorded: did not display S.A. β-gal activity	statistically significant increase in DCF fluorescence	less than that induced by the positive control; also recorded: comparable to diluent treatment	higher cell yields	lower cell yields than in the diluent-pretreated group	10%	–	–	–	–	–	–
pGTTAGGGTTAG (5' {P}, sugars by position and backbone not given here) [TO]	–	did not display S.A. β-gal activity	statistically significant increase in DCF fluorescence	less than that induced by the positive control; also recorded: comparable to diluent treatment	–	–	–	greater than ROS stimulated by pTT-treated cells	36 h	≤ 36 h	up to 1.5 times	increased resistance to H2O2	75%
